In patent publication US20140193827A1 (TEVA PHARMACEUTICAL INDUSTRIES, LTD., priority 2013, published 2014):

System: GA-primed murine splenocytes
Assay: ANOVA-based pattern identification method
Format: cell-based, mouse
Conditions: DOWN IN generic ONLY
Excerpt: We sought to identify probes matching specific patterns of expression across experimental conditions using a technique that referred to as the ANOVA-based Pattern Identification Method.
To carry out the analysis in a general manner, we computed the 6 p-values required to do pairwise comparisons of all 4 conditions for all probes using the ANOVA1 function in MATLAB. We then identified sets of probes matching the desired pattern. In the example above, probes were identified as being only affected by PG if their 6 pairwise comparison pvalues matched the following pattern (pGA-PG<0.05, pPG-reference standard<0.05, pPG-Medium<0.05, pGAMedium>0.05, pGA-reference standard>0.05, preference standard-Medium>0.05).

glatiramer acetate [GA]
GFRA3 expression level: 5.616 | GJA7 expression level: 5.868 | GM362 expression level: 5.639 | HEATR5A expression level: 5.695 | IGHVS515—AF290966_IG_HEAVY—VARIABLE_5515_49 expression level: 5.952 | LOC235971 expression level: 5.505 | LOC277422 expression level: 5.729 | LOC382760 expression level: 5.651 | LOC382783 expression level: 5.536 | LOC383612 expression level: 5.569 | LOC383940 expression level: 5.805 | LOC384215 expression level: 5.829 | LOC384513 expression level: 5.705 | LOC385059 expression level: 5.539 | LOC385626 expression level: 6.046 | LOC620009 expression level: 5.619 | LOC676672 expression level: 5.825 | LOC100043389 expression level: 5.675 | LTBP1 expression level: 5.694 | NEUROD4 expression level: 5.671 | NFAT5 expression level: 5.815 | OA1 expression level: 5.552 | OLFR750 expression level: 5.646 | OLFR1085 expression level: 5.642 | OLFR1158 expression level: 5.912 | OLFR1180 expression level: 5.658 | OLFR1230 expression level: 5.655 | OSBPL6 expression level: 5.8511 | PCDHGA8 expression level: 5.782 | PIK3R4 expression level: 5.881 | PPP1R14D expression level: 5.611 | PTCHD2 expression level: 5.831 | RARRES1 expression level: 5.601 | RNF207 expression level: 5.863 | RPL10A expression level: 14.66 | RTN2 expression level: 5.939 | SCL0070954.1_214 expression level: 5.822 | SERPINB3D expression level: 5.741 | SMARCA2 expression level: 5.616 | TMEM219 expression level: 6.158 | TRPC6 expression level: 5.632 | UTX expression level: 5.7 | control_ILMN_1378571 expression level: 5.812 | control_ILMN_1378664 expression level: 5.743 | control_ILMN_1379333 expression level: 5.62 | 1110032A03RIK expression (group mean): 5.853 | 1600012H06RIK expression (group mean): 7.313 | 1600029O10RIK expression (group mean): 7.692 | 1600032L17RIK expression (group mean): 6.091 | 1700006H02RIK expression (group mean): 5.861 | 1700011H14RIK expression (group mean): 5.738 | 1700016G05RIK expression (group mean): 5.78 | 1700016L04RIK expression (group mean): 5.693 | 1700045I19RIK expression (group mean): 5.885 | 1700073E17RIK expression (group mean): 5.629 | 1700112H15RIK expression (group mean): 5.628 | 1810005K13RIK expression (group mean): 5.74 | 1810007M14RIK expression (group mean): 6.86 | 2210008F06RIK expression (group mean): 5.65 | 2210018M11RIK expression (group mean): 6.603 | 2310016E02RIK expression (group mean): 5.742 | 2510049I19RIK expression (group mean): 6.311 | 2600011C06RIK expression (group mean): 6.286 | 2810402E24RIK expression (group mean): 6.296 | 4733401O04RIK expression (group mean): 6.449 | 4833420G17RIK expression (group mean): 6.181 | 4921505C17RIK expression (group mean): 6.382 | 4921506J03RIK expression (group mean): 9.893 | 4921506M07RIK expression (group mean): 5.749 | 4922502D21RIK expression (group mean): 5.774 | 4930449I04RIK expression (group mean): 5.894 | 4930524L23RIK expression (group mean): 5.492 | 5830411J07RIK expression (group mean): 5.837 | 5830415L20RIK expression (group mean): 7.797 | 5830472H07RIK expression (group mean): 6.24 | 6030408K21RIK expression (group mean): 5.64 | 9030003C19RIK expression (group mean): 6.271 | 9130601C02RIK expression (group mean): 5.724 | 9330133O14RIK expression (group mean): 6.205 | 9330171B01RIK expression (group mean): 5.814 | 9530013H16R1K expression (group mean): 5.782 | 9530053H22 expression (group mean): 5.531 | 9830118G07RIK expression (group mean): 6.53 | 9930021J03RIK expression (group mean): 5.61 | 6030408816RIK expression (group mean): 6.231 | A130003P22RIK expression (group mean): 6.043 | A130027D22RIK expression (group mean): 6.184 | A630040J04RIK expression (group mean): 5.997 | A630057J21RIK expression (group mean): 5.71 | A730082L10RIK expression (group mean): 6.255 | A930008A22RIK expression (group mean): 8.393 | A930025D01RIK expression (group mean): 6.43 | ADRA1B expression (group mean): 5.76 | AFMID expression (group mean): 6.226 | AGPAT5 expression (group mean): 5.926 | AGT expression (group mean): 5.634 | APOM expression (group mean): 6.071 | ARHGAP12 expression (group mean): 5.654 | ASH1L expression (group mean): 5.947 | ATG12 expression (group mean): 8.962 | ATL1 expression (group mean): 5.666 | AW822252 expression (group mean): 5.749 | B230120H23RIK expression (group mean): 5.612 | B230216G23RIK expression (group mean): 5.625 | B930071N01RIK expression (group mean): 5.764 | BC003331 expression (group mean): 7.368 | BC016608 expression (group mean): 5.838 | BC057371 expression (group mean): 5.752 | BCL10 expression (group mean): 6.261 | BCL11B expression (group mean): 6.506 | BCORL1 expression (group mean): 6.102 | BHLHB3 expression (group mean): 5.621 | BIRC6 expression (group mean): 6.264 | BMPR1B expression (group mean): 5.732 | C030004B10RIK expression (group mean): 5.708 | C77370 expression (group mean): 5.694 | C87414 expression (group mean): 5.972 | C130039E17RIK expression (group mean): 5.729 | C130064E22RIK expression (group mean): 7.411 | C130072C03RIK expression (group mean): 6.075 | C130075H21RIK expression (group mean): 5.869 | C130078D09RIK expression (group mean): 6.02 | C330011J12RIK expression (group mean): 5.722 | CALCRL expression (group mean): 5.569 | CCDC104 expression (group mean): 5.832 | CDH23 expression (group mean): 5.945 | CDKN1B expression (group mean): 6.29 | CFL2 expression (group mean): 6.246 | CHMP7 expression (group mean): 9.491 | CLASP1 expression (group mean): 6.034 | COL23A1 expression (group mean): 7.128 | COPS3 expression (group mean): 6.029 | COPZ1 expression (group mean): 6.26 | CPEB2 expression (group mean): 5.648 | CRLF1 expression (group mean): 5.648 | CTDSPL2 expression (group mean): 6.711 | D12WSU95E expression (group mean): 9.426 | D130078K04RIK expression (group mean): 5.957 | D730033A03RIK expression (group mean): 5.894 | D930007M19RIK expression (group mean): 6.333 | DEFB14 expression (group mean): 5.775 | DLC1 expression (group mean): 5.804 | DLG4 expression (group mean): 6.044 | DLGAP2 expression (group mean): 5.718 | DLX6 expression (group mean): 5.766 | DNAJC28 expression (group mean): 5.998 | DPPA1 expression (group mean): 5.758 | DPPA4 expression (group mean): 5.791 | E230016F22RIK expression (group mean): 5.685 | E530016P10RIK expression (group mean): 6.096 | EEFSEC expression (group mean): 5.654 | EG546913 expression (group mean): 5.766 | ELF2 expression (group mean): 6.475 | EP400 expression (group mean): 5.945 | FAAH expression (group mean): 5.947 | FABP2 expression (group mean): 5.582 | FBXW13 expression (group mean): 5.945 | FOXJ3 expression (group mean): 8.648 | GADD45GIP1 expression (group mean): 5.893 | GALNT1 expression (group mean): 7.895 | GALNT6 expression (group mean): 5.873 | GAPVD1 expression (group mean): 9.838 | GLRA1 expression (group mean): 5.643 | GM239 expression (group mean): 5.731 | GM438 expression (group mean): 5.731 | GM949 expression (group mean): 5.662 | GPR12 expression (group mean): 5.747 | GPRIN3 expression (group mean): 5.628 | GUCY2C expression (group mean): 5.74 | HARS expression (group mean): 6.212 | HBB-B1 expression (group mean): 13.28 | HEATR5B expression (group mean): 6.251 | HIRA expression (group mean): 5.73 | HIVEP3 expression (group mean): 5.796 | HPN expression (group mean): 5.793 | HRK expression (group mean): 5.72 | HSD362 expression (group mean): 5.745 | HSPA1B expression (group mean): 5.99 | ID2 expression (group mean): 6.095 | IFI204 expression (group mean): 5.486 | IGHV14S3—X03573$M12991X03573—IG_HEAVY—VARIABLE_14S3_203 expression (group mean): 6.044 | IKZF5 expression (group mean): 7.23 | IL1F9 expression (group mean): 5.644 | INPP4B expression (group mean): 9.329 | INSL6 expression (group mean): 9.438 | ITGA6 expression (group mean): 6.589 | ITK expression (group mean): 10.36 | JRKL expression (group mean): 5.816 | K20D4 expression (group mean): 5.688 | KAT2B expression (group mean): 6.564 | KCNK4 expression (group mean): 5.659 | KISS1 expression (group mean): 5.727 | KRIT1 expression (group mean): 5.684 | KRT32 expression (group mean): 6.01 | LCN3 expression (group mean): 5.859 | LCP2 expression (group mean): 6.557 | LOC209474 expression (group mean): 5.679 | LOC229152 expression (group mean): 5.605 | LOC236397 expression (group mean): 5.838 | LOC236831 expression (group mean): 12.43 | LOC268939 expression (group mean): 5.99 | LOC279638 expression (group mean): 6.022 | LOC333749 expression (group mean): 5.939 | LOC381448 expression (group mean): 12.91 | LOC381561 expression (group mean): 13.17 | LOC381770 expression (group mean): 6.112 | LOC382061 expression (group mean): 10.4 | LOC382454 expression (group mean): 5.761 | LOC384240 expression (group mean): 5.807 | LOC384287 expression (group mean): 5.612 | LOC385027 expression (group mean): 5.666 | LOC385046 expression (group mean): 5.695 | LOC630421 expression (group mean): 5.995 | LOC637082 expression (group mean): 5.805 | LOC674087 expression (group mean): 8.034 | LOC675899 expression (group mean): 11.9 | LOC100045437 expression (group mean): 5.74 | LOC100046343 expression (group mean): 8.607 | LOC100046568 expression (group mean): 5.888 | LOC100048049 expression (group mean): 5.81 | LOC100048616 expression (group mean): 6.595 | LOXL3 expression (group mean): 5.801 | LPIN2 expression (group mean): 7.582 | LRRC18 expression (group mean): 5.542 | LRRC39 expression (group mean): 5.712 | MACROD2 expression (group mean): 5.854 | MADD expression (group mean): 5.584 | MAT2A expression (group mean): 8.359 | MDM2 expression (group mean): 10.46 | MEDI expression (group mean): 5.672 | MEX3A expression (group mean): 6.913 | MIA3 expression (group mean): 5.862 | MIS12 expression (group mean): 5.989 | MKI67 expression (group mean): 5.673 | MRPS31 expression (group mean): 5.671 | MSH3 expression (group mean): 6.288 | MYB expression (group mean): 5.95 | MYO5C expression (group mean): 5.73 | NA112 expression (group mean): 8.275 | NANP expression (group mean): 5.686 | NARF expression (group mean): 7.224 | NCOA2 expression (group mean): 5.964 | NDRG1 expression (group mean): 7.329 | NIN expression (group mean): 8.534 | NIPSNAP1 expression (group mean): 9.27 | NT5C expression (group mean): 10.09 | NUFIP2 expression (group mean): 6.03 | OLFR125 expression (group mean): 5.697 | OLFR463 expression (group mean): 5.805 | OLFR504 expression (group mean): 5.746 | OLFR564 expression (group mean): 5.592 | OLFR782 expression (group mean): 5.74 | OLFR894 expression (group mean): 5.766 | PAPPA expression (group mean): 5.918
